The target of data set [1] is T1, USP2a (Homo sapiens, UniProt O75604).
T1 construct: endogenous in cells
T1 sequence (O75604 1-605): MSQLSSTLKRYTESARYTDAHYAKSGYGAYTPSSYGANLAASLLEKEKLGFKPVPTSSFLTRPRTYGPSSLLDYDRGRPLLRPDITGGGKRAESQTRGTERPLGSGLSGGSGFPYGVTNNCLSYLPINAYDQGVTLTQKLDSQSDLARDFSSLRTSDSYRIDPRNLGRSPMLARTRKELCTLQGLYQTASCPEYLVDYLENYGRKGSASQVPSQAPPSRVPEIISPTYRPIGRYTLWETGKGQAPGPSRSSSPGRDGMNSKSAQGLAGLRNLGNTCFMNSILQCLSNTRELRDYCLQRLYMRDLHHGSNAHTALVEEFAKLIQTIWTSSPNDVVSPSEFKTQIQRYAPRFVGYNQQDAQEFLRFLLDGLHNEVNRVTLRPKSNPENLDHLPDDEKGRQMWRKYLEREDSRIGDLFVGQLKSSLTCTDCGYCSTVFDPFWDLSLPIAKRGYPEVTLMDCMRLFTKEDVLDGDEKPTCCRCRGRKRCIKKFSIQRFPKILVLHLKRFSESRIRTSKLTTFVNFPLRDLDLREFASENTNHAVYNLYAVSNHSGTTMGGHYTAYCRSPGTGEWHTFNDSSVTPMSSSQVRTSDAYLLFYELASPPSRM
Nature of the data set: USP2a expression immunoblot in prostate cancer cell line (FIG. 6, FIG. 8). The data set is classed as cell-based. The following applies: 24 h. As to the method:
(§1) Specifically, a human prostate cancer cell line was exposed to the indicated concentrations of PAN-DUB inhibitor, 019A, for 24 hours. Thereafter, cells were lysed, and total cellular proteins were electrophoresed and immunoblotted. Proteins were probed with anti-USP2, anti-Cyclin D1, and anti-vinculin. […] Specifically, a human prostate cancer cell line was exposed to the indicated concentrations of PAN-DUB inhibitor, 019A, for 24 hours. Thereafter, cells were lysed, and total cellular proteins were electrophoresed and immunoblotted. Proteins were probed with anti-USP2, anti-Cyclin D1, and anti-tubulin. […] Specifically, a human prostate cancer cell line was exposed to the indicated concentrations of PAN-DUB inhibitor, 019A, for 24 hours. Thereafter, cells were lysed, and total cellular proteins were electrophoresed and immunoblotted. Proteins were probed with anti-USP2, anti-Cyclin D1, and anti-Tubulin antibodies or anti-vinculin antibodies. Conclusion: the PAN-DUB inhibitor promotes the dose-dependent degradation of Cyclin D1, consistent with the dose-dependent killing of the cells by the drug. The dose of the inhibitor that reduce the viability of the prostate cancer cells (about 0.5 to 0.8 μm, see FIG. 5 and FIG. 7) correlates with the amount of drug required to degrade cyclin D1 (about 0.5 to 0.8 μm).

The test system of data set [2] is AR. As to the kind of experiment: AR degradation immunoblot in prostate cancer cell line (FIG. 9). The data set is classed as cell-based, human. The following applies: 24 h. As to the method: (§2) Specifically, a human prostate cancer cell line was exposed to the indicated concentrations of PAN-DUB inhibitor, 019A, for 24 hours. Thereafter, cells were lysed, and total cellular proteins were electrophoresed and immunoblotted. Proteins were probed with anti-USP12, anti-AR, and anti-Tubulin antibodies. […] Specifically, a human prostate cancer cell line was exposed to the indicated concentrations of PAN-DUB inhibitor, 019A, for 24 hours. Thereafter, cells were lysed, and total cellular proteins were electrophoresed and immunoblotted. Proteins were probed with anti-USP12, anti-AR, and anti-Tubulin antibodies. Conclusion: the PAN-DUB inhibitor promotes the dose-dependent degradation of AR, consistent with the dose-dependent killing of the cells by the drug. The dose of the inhibitor that reduce the viability of the prostate cancer cells (about 0.5 to 0.8 μm, see FIG. 5 and FIG. 7) correlates with the amount of drug required to degrade AR (about 0.6 to 0.8 μm).
On the technique in general: Immunoblotting shows a protein as a band on a membrane.

Data set [3] deals with EGFR. As to the kind of experiment: EGFR degradation immunoblot in NSCLC line H1650 (FIG. 3). The format is cell-based, human. To be noted: H1650 cells, 24 h. As to the method: Specifically, the NSCLC line H1650, which is driven by a constitutively-activated EGFR, was treated with the indicated concentrations of the PAN-DUB inhibitor SJB-019A and/or the kinase inhibitor Gefitinib. After 24 hours, cells were lysed and the total cellular proteins were electrophoresed by standard PAGE methods. Proteins were immunoblotted and probed with commercially available polyclonal antisera to EGFR or Tubulin. […] Specifically, the NSCLC line H1650, which is driven by a constitutively-activated EGFR, was treated with the indicated concentrations of the PAN-DUB inhibitor SJB-019A and/or the kinase inhibitor Gefitinib. After 24 hours, cells were lysed and the total cellular proteins were electrophoresed by standard PAGE methods. Proteins were immunoblotted and probed with commercially available polyclonal antisera to EGFR or Tubulin. Conclusion: the PAN-DUB inhibitor promotes the degradation of the EGFR, at least in part, by inhibition of USP8 which is expressed in these cells. The dose of the inhibitor that reduce the viability of the NSCLC (less than 0.5 μm, see FIG. 2) correlates with the amount of drug required to degrade EGFR (between 0.2-0.5 μm).

For data set [4], the system named is human prostate cancer cell line. Nature of the data set: Prostate cancer cell viability after 24 h incubation (FIG. 5, FIG. 7). The format is cell-based. The method, then: A human prostate cancer cell line was incubated with the indicated concentration of DUB inhibitor for 24 hours, and viability was then measured. […] A human prostate cancer cell line was incubated with the indicated concentration of DUB inhibitor for 24 hours, and viability was then measured. […] A human prostate cancer cell line was incubated with the indicated concentration of DUB inhibitor for 24 hours, and viability was then measured.

The subject of data set [5] is human non-small cell lung cancer (NSCLC) lines. Nature of the data set: NSCLC cell line viability after 24 h incubation (FIG. 2). The data set is classed as cell-based. As to the method:
The indicated human non-small cell lung cancer (NSCLC) lines were incubated with the indicated concentrations of the DUB inhibitor (019A) for twenty-four hours, and cell viability was measured. […] The indicated human non-small cell lung cancer (NSCLC) lines were incubated with the indicated concentrations of the DUB inhibitor (019A) for twenty-four hours, and cell viability was measured. […] Specifically, the NSCLC line H1650, which is driven by a constitutively-activated EGFR, was treated with the indicated concentrations of the PAN-DUB inhibitor SJB-019A and/or the kinase inhibitor Gefitinib. After 24 hours, cells were lysed and the total cellular proteins were electrophoresed by standard PAGE methods. Proteins were immunoblotted and probed with commercially available polyclonal antisera to EGFR or Tubulin. Conclusion: the PAN-DUB inhibitor promotes the degradation of the EGFR, at least in part, by inhibition of USP8 which is expressed in these cells. The dose of the inhibitor that reduce the viability of the NSCLC (less than 0.5 μm, see FIG. 2) correlates with the amount of drug required to degrade EGFR (between 0.2-0.5 μm).

In data set [6] the test system is Cyclin D1. Nature of the data set: Cyclin D1 degradation immunoblot in prostate cancer cell line (FIG. 6, FIG. 8). The following applies: 24 h. The data set is classed as cell-based, human. As to the method: as §1
Data set [7] is described as follows: Pharmacokinetics of 019A in mice (FIG. 1). The data set is classed as in vivo. To be noted: IV, IP, or oral (PO) administration.
For data set [8], the target named is T2, USP12 (Homo sapiens, UniProt O75317).
T2 construct: cells were lysed, and total cellular proteins were electrophoresed and immunoblotted; endogenous in cells
T2 sequence (O75317 whole entry): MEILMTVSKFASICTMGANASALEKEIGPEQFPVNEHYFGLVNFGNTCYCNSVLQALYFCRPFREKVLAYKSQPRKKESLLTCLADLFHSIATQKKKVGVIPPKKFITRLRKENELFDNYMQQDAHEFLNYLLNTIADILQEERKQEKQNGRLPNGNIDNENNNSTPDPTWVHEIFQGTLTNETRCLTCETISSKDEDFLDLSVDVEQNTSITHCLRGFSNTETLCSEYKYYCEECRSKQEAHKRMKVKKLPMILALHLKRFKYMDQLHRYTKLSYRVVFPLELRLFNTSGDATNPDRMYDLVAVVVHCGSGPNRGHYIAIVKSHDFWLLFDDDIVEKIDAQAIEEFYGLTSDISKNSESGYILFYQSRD
T2 sequence (Q8TAF3 whole entry partner): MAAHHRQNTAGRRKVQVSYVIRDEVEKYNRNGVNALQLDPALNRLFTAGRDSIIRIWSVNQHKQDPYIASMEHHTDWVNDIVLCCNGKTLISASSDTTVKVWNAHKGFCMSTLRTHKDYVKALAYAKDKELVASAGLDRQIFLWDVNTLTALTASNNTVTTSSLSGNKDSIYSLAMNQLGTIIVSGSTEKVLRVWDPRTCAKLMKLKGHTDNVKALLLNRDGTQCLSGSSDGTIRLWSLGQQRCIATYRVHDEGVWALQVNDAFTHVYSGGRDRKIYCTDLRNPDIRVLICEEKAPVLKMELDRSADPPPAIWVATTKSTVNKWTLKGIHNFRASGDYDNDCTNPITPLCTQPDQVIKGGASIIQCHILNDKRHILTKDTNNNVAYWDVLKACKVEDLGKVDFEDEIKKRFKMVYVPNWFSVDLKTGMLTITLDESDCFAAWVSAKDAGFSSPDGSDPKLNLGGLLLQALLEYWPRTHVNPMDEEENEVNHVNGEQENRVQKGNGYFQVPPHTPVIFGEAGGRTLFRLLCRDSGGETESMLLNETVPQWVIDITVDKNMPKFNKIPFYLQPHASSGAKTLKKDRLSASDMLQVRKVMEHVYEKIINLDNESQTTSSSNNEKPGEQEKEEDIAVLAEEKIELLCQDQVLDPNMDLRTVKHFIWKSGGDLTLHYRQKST
T2 sequence (Q8TBZ3 whole entry partner): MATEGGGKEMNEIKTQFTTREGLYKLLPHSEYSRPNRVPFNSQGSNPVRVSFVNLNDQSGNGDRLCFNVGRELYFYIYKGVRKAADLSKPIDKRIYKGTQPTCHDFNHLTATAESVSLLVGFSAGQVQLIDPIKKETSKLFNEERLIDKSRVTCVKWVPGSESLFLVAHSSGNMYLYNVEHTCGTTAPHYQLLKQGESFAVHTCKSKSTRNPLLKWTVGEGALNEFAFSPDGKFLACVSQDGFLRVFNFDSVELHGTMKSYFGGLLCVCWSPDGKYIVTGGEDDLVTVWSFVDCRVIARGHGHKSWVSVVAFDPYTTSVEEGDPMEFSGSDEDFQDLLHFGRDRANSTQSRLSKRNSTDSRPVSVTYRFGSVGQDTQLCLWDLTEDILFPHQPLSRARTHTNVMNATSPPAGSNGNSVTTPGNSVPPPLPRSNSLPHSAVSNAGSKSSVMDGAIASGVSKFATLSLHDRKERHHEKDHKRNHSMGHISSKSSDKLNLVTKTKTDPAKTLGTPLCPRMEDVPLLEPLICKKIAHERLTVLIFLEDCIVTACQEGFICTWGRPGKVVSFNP
As to the kind of experiment: USP12 protein immunoblot in prostate cancer cell line (FIG. 9). To be noted: 24 h. The data set is classed as cell-based. As to the method: as §2

Data set [9] concerns the target T3, USP1 (Homo sapiens, UniProt O94782).
T3 construct: endogenous in cells; host or cells: K562 human leukemia cells (lysate)
As to the kind of experiment: Ub-VS labelling gel shift in K562 cell lysate, anti-USP1 western blot (FIG. 4). The following applies: dose dependent. The data set is classed as biochemical. The method, then:
(§3) Human leukemia cells (K652 cell line) express USP8, USP1, and other DUBs. In this experiment, K562 cells were lysed, and total cellular proteins were incubated with the affinity reagent, Ub-VS (vinyl sulfone) which covalently binds to active USPs. As indicated, the addition of Ub-VS causes an upward gel shift of active USP8 and active USP1 (lane 2). […] A western blot is shown, immunoblotted with either anti-USP8, anti-USP1, or anti-HA.
(§4) Human leukemia cells (K652 cell line) express USP8, USP1, and other DUBs. In this experiment, K562 cells were lysed, and total cellular proteins were incubated with the affinity reagent, Ub-VS (vinyl sulfone) which covalently binds to active USPs. As indicated, the addition of Ub-VS causes an upward gel shift of active USP8 and active USP1 (lane 2). […] A western blot is shown, immunoblotted with either anti-USP8, anti-USP1, or anti-HA antibodies.
On the technique in general: In EMSA bound probe runs differently from free probe, usually more slowly.

The target of data set [10] is T4, USP8 (Homo sapiens, UniProt P40818).
T4 construct: endogenous in cells; host or cells: K562 human leukemia cells (lysate)
T4 sequence (P40818 1-1118): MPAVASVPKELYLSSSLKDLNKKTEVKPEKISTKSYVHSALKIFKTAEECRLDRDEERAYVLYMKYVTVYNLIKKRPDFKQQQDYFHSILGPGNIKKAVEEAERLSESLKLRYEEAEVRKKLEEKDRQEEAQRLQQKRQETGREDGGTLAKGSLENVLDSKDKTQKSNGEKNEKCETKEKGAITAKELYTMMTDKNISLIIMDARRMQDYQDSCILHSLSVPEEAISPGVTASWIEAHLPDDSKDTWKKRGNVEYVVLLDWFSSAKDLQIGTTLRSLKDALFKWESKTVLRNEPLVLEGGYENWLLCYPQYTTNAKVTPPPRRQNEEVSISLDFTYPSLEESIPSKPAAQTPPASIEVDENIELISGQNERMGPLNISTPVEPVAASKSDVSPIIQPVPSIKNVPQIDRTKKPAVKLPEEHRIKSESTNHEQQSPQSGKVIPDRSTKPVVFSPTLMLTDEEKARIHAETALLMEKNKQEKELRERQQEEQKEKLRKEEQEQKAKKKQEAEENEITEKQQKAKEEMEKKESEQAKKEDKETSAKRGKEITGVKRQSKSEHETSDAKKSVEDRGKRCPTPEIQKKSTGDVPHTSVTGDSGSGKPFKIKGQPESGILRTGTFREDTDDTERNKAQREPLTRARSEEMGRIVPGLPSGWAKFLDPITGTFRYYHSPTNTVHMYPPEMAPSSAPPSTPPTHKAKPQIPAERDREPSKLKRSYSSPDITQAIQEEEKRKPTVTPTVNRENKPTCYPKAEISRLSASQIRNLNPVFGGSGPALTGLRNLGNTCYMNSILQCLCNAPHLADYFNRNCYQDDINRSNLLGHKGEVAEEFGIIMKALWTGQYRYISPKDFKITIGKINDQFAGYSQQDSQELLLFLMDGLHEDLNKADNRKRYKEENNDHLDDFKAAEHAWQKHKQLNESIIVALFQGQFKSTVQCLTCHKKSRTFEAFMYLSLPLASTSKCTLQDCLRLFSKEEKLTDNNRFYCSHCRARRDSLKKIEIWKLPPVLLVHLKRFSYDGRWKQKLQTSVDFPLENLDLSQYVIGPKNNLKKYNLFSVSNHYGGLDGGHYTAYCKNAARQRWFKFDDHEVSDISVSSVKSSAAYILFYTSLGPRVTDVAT
As to the kind of experiment: Ub-VS labelling gel shift in K562 cell lysate, anti-USP8 western blot (FIG. 4). The format is biochemical. The following applies: dose dependent. The method, then: as §3, §4

T3 sequence (O94782 whole entry): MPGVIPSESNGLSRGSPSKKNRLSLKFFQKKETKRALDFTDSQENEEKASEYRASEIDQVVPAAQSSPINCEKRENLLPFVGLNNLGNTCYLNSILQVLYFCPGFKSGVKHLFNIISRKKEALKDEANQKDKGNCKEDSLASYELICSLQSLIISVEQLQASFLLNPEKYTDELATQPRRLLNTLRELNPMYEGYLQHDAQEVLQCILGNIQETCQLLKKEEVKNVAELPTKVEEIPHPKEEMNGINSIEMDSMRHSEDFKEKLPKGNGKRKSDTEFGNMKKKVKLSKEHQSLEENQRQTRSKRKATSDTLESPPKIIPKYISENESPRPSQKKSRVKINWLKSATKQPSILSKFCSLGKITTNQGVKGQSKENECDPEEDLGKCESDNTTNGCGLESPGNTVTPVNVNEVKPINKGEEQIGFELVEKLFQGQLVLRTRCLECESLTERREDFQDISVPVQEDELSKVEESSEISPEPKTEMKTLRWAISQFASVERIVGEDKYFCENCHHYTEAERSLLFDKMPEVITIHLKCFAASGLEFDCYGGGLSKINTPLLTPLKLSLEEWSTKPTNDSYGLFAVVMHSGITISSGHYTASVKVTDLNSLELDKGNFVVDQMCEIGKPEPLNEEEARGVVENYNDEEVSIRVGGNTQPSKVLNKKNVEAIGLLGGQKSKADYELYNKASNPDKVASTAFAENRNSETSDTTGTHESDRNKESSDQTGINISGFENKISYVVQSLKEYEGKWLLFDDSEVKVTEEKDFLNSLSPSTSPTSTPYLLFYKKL
T3 sequence (Q8TAF3 whole entry partner): as the sequence (Q8TAF3 whole entry partner) above

In the case of `O=C1c2ccccc2C(=O)c2oc(-c3cccnc3)nc21` [019A], the “effect on USP2a expression” value in data set [1] is listed as “does not affect USP2a expression”. Also, the “amount of drug required to degrade AR” value in [2] was in the range of 0.6 to 0.8 μm. In addition, the “amount of drug required to degrade EGFR” value in data set [3] is 0.2-0.5 μm. Also, in data set [4], the “dose of the inhibitor that reduces the viability of the prostate cancer cells” value is listed as 0.5 to 0.8 μm and the “drug concentration range for killing of prostate cancer cells” value is on record as “submicromolar range”. The “dose of the inhibitor that reduces the viability of the NSCLC” value in [5] (24 h incubation) was “less than 0.5 μm”. For the same compound, in data set [5] (cell lines which express activated EGF-receptor, 24 h), the “selective killing (cytotoxicity) of lung cancer cell lines” value is “selective killing (cytotoxicity) for lung cancer cell lines which express activated EGF-receptor”. The “amount of drug required to degrade cyclin D1” value in data set [6] is 0.5 to 0.8 μm. Further, in [7], the “serum concentrations after administration” value is given as “inhibitory serum concentrations of 019A can be achieved”. In data set [8], the “effect on USP12 protein” value is “degrades USP12 protein”.
Turning to Ub-aldehyde, the “inhibition of Ub-VS binding to active USP1” value in data set [9] is given as “blocks the upward shift”. Moreover, the “inhibition of Ub-VS binding to active USP8” value in [10] is on record as “blocks the upward shift”.

The values are drawn from US10450281B1, “Compounds and methods for treating cancer” (Dana-Farber Cancer Institute, Inc., priority 2014, dated 2019).
